The target of experiment [1] is Beta Secretase enzyme (BACE) (Homo sapiens, UniProt P56817). Nature of the experiment: In vitro enzymatic BACE FRET (fluorescence resonance energy transfer) assay. The note with it: average IC50, enzyme assay; read-out: BACE 1 FRET assay. The format is biochemical. The procedure, abridged: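 Cleavage of a 50 nM fluorophore/quencher peptide FRET substrate by BACE for 1 h in 0.05 M acetate pH 4.2, 10% DMSO, 100 uM genapol. Reaction stopped with Tris to neutral pH before fluorescence reading.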

For experiment [2], the system named is Aβ40 in conditioned medium of cells stably expressing Amyloid Precursor Protein (APP). The experiment in a line: In vitro BACE cell-based assay (Aβ40 in conditioned medium, sandwich ELISA). Conditions: read-out: HEK cell assay. The procedure, abridged: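 Step two: 10-point compound titration added, starting 100 μM or 10 μM, 0.1% DMSO. Step three: medium Aβ40 measured by ELISA, capture 3 h and detection 2 h at 4° C, TRF read.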
A general note: An ELISA detects its analyte on a solid surface through an enzyme-linked reagent.

Setting [3] is: Homo sapiens, HEK293, average IC50.
[4] abbreviates: Homo sapiens, HEK293, average IC50, HEK cells.

Read-outs that look alike come from different tables or passages of the source. A value given as a limit tells only on which side of the number the result lay.

Beta Secretase enzyme (BACE), sequence (P56817 46-501, species assumed): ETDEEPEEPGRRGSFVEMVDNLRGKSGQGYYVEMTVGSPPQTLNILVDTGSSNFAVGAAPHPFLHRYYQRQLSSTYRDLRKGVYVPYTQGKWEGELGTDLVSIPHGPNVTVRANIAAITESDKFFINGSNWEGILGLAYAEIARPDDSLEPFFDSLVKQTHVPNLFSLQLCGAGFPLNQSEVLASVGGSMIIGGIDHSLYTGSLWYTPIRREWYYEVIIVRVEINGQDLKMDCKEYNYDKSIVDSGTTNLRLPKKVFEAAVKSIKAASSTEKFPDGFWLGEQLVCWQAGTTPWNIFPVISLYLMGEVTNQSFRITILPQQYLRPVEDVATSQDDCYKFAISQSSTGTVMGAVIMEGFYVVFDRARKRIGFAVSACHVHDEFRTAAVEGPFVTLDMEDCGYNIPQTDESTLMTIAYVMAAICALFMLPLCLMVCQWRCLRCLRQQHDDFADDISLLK

Turning to `NC1=N[C@@]2(CO1)c1cc(-c3c(F)ccnc3F)ccc1Oc1cnc([C@H]3CCCOC3)cc12` (mixture of isomers) [Example 909, (5S)-7-(2,4-difluoro-3-pyridinyl)-3-((3R)-tetrahydro-2H-pyran-3-yl)spiro[chromeno[2,3-c]pyridine-5,4′-[1,3]oxazol]-2′-amine, (5S)-7-(2,4-difluoro-3-pyridinyl)-3-((3S)-tetrahydro-2H-pyran-3-yl)spiro[chromeno[2,3-c]pyridine-5,4′-[1,3]oxazol]-2′-amine], the figures for the IC50 in experiment [1] and in experiment [2] were 19.8 nM and 266 nM, respectively.
Turning to `NC1=N[C@@]2(CO1)c1cc(-c3cnccc3F)ccc1Oc1c(F)cc(C3CCOCC3)cc12` [Example 1056, (4S)-4′-fluoro-7′-(4-fluoro-3-pyridinyl)-2′-(tetrahydro-2H-pyran-4-yl)spiro[1,3-oxazole-4,9′-xanthen]-2-amine], the IC50 came out at 3 nM in experiment [1] and 17 nM in experiment [2] (setting [3]).
For `CC#Cc1cncc(-c2ccc3c(c2)[C@@]2(COC(N)=N2)c2cc(C4=CCOCC4)cc(F)c2O3)c1` [Example 946, (4S)-2′-(3,6-dihydro-2H-pyran-4-yl)-4′-fluoro-7′-(5-(1-propyn-1-yl)-3-pyridinyl)spiro[1,3-oxazole-4,9′-xanthen]-2-amine], the IC50 in experiment [1] was found to be 0.3 nM; in experiment [2] (setting [4]) it was 4 nM.
Regarding `NC1=N[C@@]2(CO1)c1cc(-c3cncc(F)c3)ccc1Oc1c2cc(-c2cccnc2)nc1F` [Example 630, (5S)-1-fluoro-7-(5-fluoro-3-pyridinyl)-3-(3-pyridinyl)spiro[chromeno[2,3-c]pyridine-5,4′-[1,3]oxazol]-2′-amine], the IC50 in experiment [1] stood at 0.3 nM; in experiment [2] (setting [4]), 11 nM.
Consider `CC1(C#Cc2cc(F)c3c(c2)C2(COC(N)=N2)c2cc(-c4cccnc4F)ncc2O3)COC1` (stereo not shown) [Example 662, 9-fluoro-3-(2-fluoro-3-pyridinyl)-7-((3-methyl-3-oxetanyl)ethynyl)spiro[chromeno[2,3-c]pyridine-5,4′-[1,3]oxazol]-2′-amine], for which the figures for the IC50 in experiment [1] and in experiment [2] (setting [4]) were 3.3 nM and 129 nM, respectively.
In the same order, the values of `Cc1ccn(-c2cc(F)c3c(c2)[C@]2(COC(N)=N2)c2cc(-c4cncnc4)ccc2O3)n1` [Example 635, (4S)-4′-fluoro-2′-(3-methyl-1H-pyrazol-1-yl)-7′-(5-pyrimidinyl)spiro[1,3-oxazole-4,9′-xanthen]-2-amine] are 2.4 nM and 23 nM.
As to `COc1ccncc1-c1ccc2c(c1)[C@@]1(COC(N)=N1)c1cc(Cl)ncc1O2` [Example 652, (5S)-3-chloro-7-(4-methoxy-3-pyridinyl)spiro[chromeno[2,3-c]pyridine-5,4′-[1,3]oxazol]-2′-amine], the results for the IC50 in experiment [1] and in experiment [2] (setting [4]) were 1220 nM and 2170 nM, respectively.
As for `NC1=N[C@@]2(CO1)c1cc(-c3cncc(Cl)c3)ccc1Oc1c(F)cc(N3CCOCC3)cc12` [Example 208, (4S)-7′-(5-chloro-3-pyridinyl)-4′-fluoro-2′-(4-morpholinyl)spiro[1,3-oxazole-4,9′-xanthen]-2-amine], the results for the IC50 in experiment [1] and in experiment [2] (setting [3]) were 0.8 nM and 3.8 nM, respectively.
Consider `N#Cc1cccc(-c2cc3c(cn2)Oc2c(F)cc(C4=CCOCC4)cc2[C@]32COC(N)=N2)c1` [Example 308, 3-((5S)-2′-amino-7-(3,6-dihydro-2H-pyran-4-yl)-9-fluorospiro[chromeno[2,3-c]pyridine-5,4′-[1,3]oxazol]-3-yl)benzonitrile], for which the figures for the IC50 in experiment [1] and in experiment [2] (setting [3]) were 9.3 nM and 117 nM, respectively.
As for `CC(C)(CF)COc1cc(F)c2c(c1)[C@]1(CSC(N)=N1)c1cc(-c3cccnc3F)ccc1O2` [Example 1081, (4S)-4′-fluoro-2′-(3-fluoro-2,2-dimethylpropoxy)-7′-(2-fluoro-3-pyridinyl)spiro[1,3-thiazole-4,9′-xanthen]-2-amine], the IC50 in experiment [1] is 214 nM; in experiment [2] (setting [3]), 899 nM.
Consider `NC1=N[C@]2(CS1)c1cc(Br)ccc1Oc1cnc(Cl)cc12` [Example 993, (5R)-7-bromo-3-chlorospiro[chromeno[2,3-c]pyridine-5,4′-[1,3]thiazol]-2′-amine], for which the IC50 in experiment [1] was 11600 nM; in experiment [2] (setting [3]) it was no less than 10000 nM.

The values are drawn from patent publication US8883782B2, “Spiro-tetracyclic ring compounds as beta-secretase modulators and methods of use” (Amgen Inc., priority 2010, dated 2014).
